Series [1] deals with T. brucei bloodstream forms. The arrangement: method as in PMID 34639127. The note with it: ref [126]; cited from earlier work.
In series [2] the test system is T. gondii β-gal tachyzoites. Briefly: Dose-response study (IC50) against T. gondii β-gal tachyzoites. The series is classed as cell-based, Toxoplasma gondii. The note with it: 8 serial concentrations 0.007-1 µM, 72 h. As for the experimental part:
(§1) The screening cascade for the compounds was described in former studies. All compounds were prepared as 1 mM stock solutions from powder, in dimethyl sulfoxide (DMSO, Sigma, St. Louis, MO, USA). For in vitro activity and cytotoxicity assays, HFF were seeded at 5 × 10^3/well and allowed to grow to confluence in phenol-red free culture medium at 37 °C and 5% CO2. T. gondii tachyzoites were released from host cells, and HFF monolayers were infected with freshly isolated parasites (1 × 10^3/well), and compounds were added concomitantly with infection.
For the dose-response study (IC50 values), measurements for T. gondii β-gal were performed. The selected compounds were added concomitantly with infection in 8 serial concentrations 0.007, 0.01, 0.03, 0.06, 0.12, 0.25, 0.5, and 1 μM.
(§2) To measure the activity of the tested compound on T. gondii β-gal parasites, after a period of 72 h of culture at 37 °C/5% CO2, the culture medium was aspirated, and cells were permeabilized by adding 90 μL PBS (phosphate buffered saline) with 0.05% Triton X-100. Next, 10 μL of 5 mM chlorophenolred-β-D-galactopyranoside (CPRG; Roche Diagnostics, Rotkreuz, Switzerland, substrate for the β-galactosidase) in PBS were added. Release of chlorophenol red was measured at 570 nm using an EnSpire® multimode plate reader (PerkinElmer, Inc., Waltham, MA, USA). A 100% proliferation of T. gondii β-gal was assigned to control parasites treated only with DMSO. For the primary screening at 0.1 and 1 μM, the activity was measured as the release of chlorophenol red over time and was calculated as percentage from the respective DMSO treated control, which represented 100% of T. gondii β-gal growth.
For the IC50 assays, the activity measured as the release of chlorophenol red over time was proportional to the number of live parasites down to 50 per well as determined in pilot assays. IC50 values were calculated after the logit-log-transformation of relative growth and subsequent regression analysis. All calculations were performed using the corresponding software tool contained in the Excel software package (Microsoft, Redmond, WA, USA).

Series [3] has as its system T. gondii β-gal tachyzoites. Briefly: Primary screening: T. gondii β-gal proliferation in HFF monolayers at 0.1 and 1 µM (CPRG readout). The format is cell-based, Toxoplasma gondii. The note with it: 0.1 µM, tachyzoites cultured in HFF, 72 h, relative to DMSO control. As for the experimental part:
as §1
In the primary screening, HFF monolayers infected with T. gondii β-gal were treated with 0.1 and 1 µM of each compound, or the corresponding concentration of DMSO (0.01 or 0.1%, respectively) as controls and were incubated for 72 h at 37 °C/5% CO2 as previously described.
as §2

For series [4], the system named is human foreskin fibroblasts (HFF). Briefly: Cytotoxicity in non-infected HFF by alamarBlue assay. The format is cell-based. As for the experimental part: as §1
Cytotoxicity assays using uninfected confluent HFF host cells were performed by the alamarBlue assay as previously reported. Confluent HFF monolayers in 96 well-plates were exposed to 0.1, 1, and 2.5 μM of each compound. Non-treated HFF as well as DMSO controls (0.01%, 0.1%, and 0.25%) were included. After 72 h of incubation at 37 °C/5% CO2, the medium was removed, and the plates were washed once with PBS. Resazurin suspended in PBS to a final concentration of 0.01 g/L was added to each well (200 μL/well). Fluorescence was measured at excitation wavelength 530 nm and emission wavelength […] using an EnSpire® multimode plate reader (PerkinElmer, Inc, Waltham, MA, USA). The cytotoxicity values were calculated as percentage of the respective DMSO control, which represented 100% of HFF viability.
Background: Resazurin is reduced to fluorescent resorufin, in cell work by metabolically active cells.

Several values for one entry are separate records, joined by “and”; a condition that tells them apart may be missing. Equal entries are not always repeated.

What is called IC50 is the point on the concentration scale where inhibition reaches its midpoint. Lower therefore signals higher potency.

Regarding `CC(C)(C)c1ccc(C[S+]2[Ru-]3[S+](Cc4ccc(C(C)(C)C)cc4)[Ru-]2[S+]3c2ccc(CC(=O)OCCn3cnc4c(N)ncnc43)cc2)cc1.Cc1ccc(C(C)C)cc1.Cc1ccc(C(C)C)cc1.[Cl-]` (centres unmarked) [Compound 14], the “Activity against T. brucei bloodstream forms” value in series [1] is given as “highly active”. In series [2], the IC50 is 0.059 µM. The “T. gondii β-gal Growth (%)” value in series [3] was 12 ± 1%. Moreover, the “HFF Viability (%)” value in series [4] (0.1 µM, non-infected HFF, 72 h, relative to DMSO control, triplicate) was 95 ± 11%; in series [4] (2.5 µM, control 0.25% DMSO = 100%, six replicates), “low toxicity and medium toxicity and 76%”.
